In article PMC7346113, “Screening of Natural Stilbene Oligomers from Vitis vinifera for Anticancer Activity on Human Hepatocellular Carcinoma Cells” (Antioxidants, 2020):

How the values were obtained:
Type in all cases: cell-based, human
[1] = system: mitochondrial O2- in HepG2; assay: Mitochondrial O2- levels, MitoSOX probe, flow cytometry; settings: HepG2, 5 and 10 µM, any of the doses or times assayed
Experimental: The mitochondrial superoxide anion (O2^−) levels were measured using MitoSOX™Red reagent (Molecular Probes, Eugene, OR, USA), which permeates living cells where it selectively targets mitochondria and is oxidized by superoxide.
(§1) HepG2 cells were cultured in a 6-well cell culture plate at a density of 2 × 10^5 cells per well 24 h before starting the treatment with R2-viniferin. The medium was renewed and cells were incubated with R2-viniferin as described above. After treatment, cells were washed and incubated with 20 μM H2DCF-DA or 4 μM MitoSOX™ for 30 min at 37 °C in the dark. The probe solution was then withdrawn and, after washing with PBS, the cells were trypsinized. The fluorescence intensity from living cells was measured by flow cytometry (DCF λex = 485/20 and λem = 528/20, MitoSOX λex = 485/20 and λem = 620/20) in a Beckman Coulter Gallios Flow cytometer in the General Research Services SGIker of the UPV/EHU. At least 10,000 events were detected. Data obtained from flow cytometry were analyzed using Summit 4.3 software (Dako, Hovedstaden, Denmark). Intracellular ROS and mitochondrial O2^− were expressed as the percentage of the fluorescence intensity in control cells at the same time of incubation.

[2] = system: intracellular ROS in HepG2; assay: Intracellular ROS, H2DCF-DA assay, flow cytometry
Experimental: Intracellular levels of reactive oxygen species (ROS) were measured using the cell-permeant 2’,7’ dichlorodihydrofluorescein diacetate (H2DCF-DA) probe (Molecular Probes, Eugene, OR, USA), which permeates living cells and is deacetylated and oxidized upon ROS exposure inside the cell, forming the fluorescent 2’,7’-dichlorofluorescein (DCF).
as §1

[3] = system: Hep3B; assay: Cell viability, crystal violet assay, Hep3B; settings: mean ± standard error
Excerpt: The human hepatoma cell line HepG2 was obtained from the American Tissue Culture Collection (ATCC, Manassas, VA, USA). The human hepatoma cell line Hep3B was obtained from the European Collection of Authenticated Cell Cultures (ECACC, Porton Down, Salisbury, Wiltshire, UK). HH4 non-transformed human hepatocyte cell line (kindly provided by Dr. I. Fabregat, Molecular Oncology, Bellvitge Biomedical Research Institute, Spain) was established as described.
HepG2 and Hep3B cell lines were maintained in Eagle’s Minimum Essential Medium and HH4 cell line was grown in Ham´s F12 Nutrient Mixture (Sigma-Aldrich, St Louis, MO, USA). Both culture media were supplemented with 10% heat inactivated fetal bovine serum, 2 mM L-glutamine and antibiotics (0.1 mg/mL streptomycin and 100 U/mL penicillin) (Sigma-Aldrich, St Louis, MO, USA). Cell cultures were grown in an incubator at 37 °C with 5% CO2 atmosphere. After reaching approximately 80% of confluence, cells were detached in a solution of 0.1% trypsin and 0.04% EDTA and plated as required for further experiments.
Cell lines were seeded into 96-well plates at 5 × 10^3 (HepG2) and 3 × 10^3 (Hep3B and HH4) cells/well 24 h before treatment. Increasing concentrations of the monomer trans-resveratrol, the dimers ampelopsin A and trans-ε-viniferin and the tetramers isohopeaphenol, hopeaphenol, R2-viniferin and R-viniferin were then added and cells were incubated for 24, 48, and 72 h. Stilbenes were dissolved in dimethyl sulfoxide (DMSO), Sigma-Aldrich, St Louis, MO, USA) at a final concentration of 0.01%. The same amount of DMSO was added to control cells. After treatment, the cell viability was determined using the crystal violet assay. The absorbance was recorded at 590 nm in a Synergy HT microplate reader (BioTek, Winooski, VT, USA). Cell viability was calculated as the percentage of viable cells treated with stilbene versus untreated control cells using the following equation: Cell viability (%) = [OD (Treatment) − OD (Blank)]/[OD (Control) − OD (Blank)] × 100. The cytotoxic effect of stilbenes was determined by calculating IC50 values using non-linear regression analysis (GraphPad Prism 6, San Diego, CA, USA).
The statistical package SPSS 19.0 (SPSS Inc. Chicago, IL, USA) was used for data analysis. The results were expressed as mean ± standard error (SE) from at least three experiments. Statistical significance for the differences of the means was estimated by parametric Student’s t-test. Differences between means were considered statistically significant for p < 0.05. IC50 values were derived from fitting the data to a sigmoidal dose-response curve with a three-parameter logistic model using Graph Pad Prism 6.

SMILES: Oc1ccc([C@H]2c3c(O)cc(O)cc3[C@H]3c4c(cc(O)cc4[C@@H]2c2cc(/C=C/c4cc(O)cc5c4[C@H](c4cc(O)cc(O)c4)[C@@H](c4ccc(O)cc4)O5)ccc2O)O[C@@H]3c2ccc(O)cc2)cc1 [R2-Viniferin]
- Effect on mitochondrial O2- [1]: no significant effect
- Effect on intracellular ROS concentration ([2]; HepG2, 5 and 10 µM, from the first time assayed): increased the intracellular ROS concentration dose-dependently
- Effect on intracellular ROS ([2]; HepG2, highest concentration used (10 µM)): ROS remained significantly elevated up to 72 h
- IC50 ([3]; 72 h): 47.8 ± 2.8 µM
- IC50 ([3]; Homo sapiens, Hep3B, 24 h): > 200 µM
- IC50 ([3]; Homo sapiens, Hep3B, 48 h): 43.9 ± 3.6 µM
- IC50 ([3]; Homo sapiens, Hep3B, 72 h): 48 µM
